This note sets out measurements from patent US8557796B2, “Substituted 1-oxa-2,8-diaza-spiro [4,5] dec-2-ene derivatives and related treatment methods” (Gruenenthal GmbH, priority 2001, dated 2013).

T1 sequence (Q9WTR4 1-597): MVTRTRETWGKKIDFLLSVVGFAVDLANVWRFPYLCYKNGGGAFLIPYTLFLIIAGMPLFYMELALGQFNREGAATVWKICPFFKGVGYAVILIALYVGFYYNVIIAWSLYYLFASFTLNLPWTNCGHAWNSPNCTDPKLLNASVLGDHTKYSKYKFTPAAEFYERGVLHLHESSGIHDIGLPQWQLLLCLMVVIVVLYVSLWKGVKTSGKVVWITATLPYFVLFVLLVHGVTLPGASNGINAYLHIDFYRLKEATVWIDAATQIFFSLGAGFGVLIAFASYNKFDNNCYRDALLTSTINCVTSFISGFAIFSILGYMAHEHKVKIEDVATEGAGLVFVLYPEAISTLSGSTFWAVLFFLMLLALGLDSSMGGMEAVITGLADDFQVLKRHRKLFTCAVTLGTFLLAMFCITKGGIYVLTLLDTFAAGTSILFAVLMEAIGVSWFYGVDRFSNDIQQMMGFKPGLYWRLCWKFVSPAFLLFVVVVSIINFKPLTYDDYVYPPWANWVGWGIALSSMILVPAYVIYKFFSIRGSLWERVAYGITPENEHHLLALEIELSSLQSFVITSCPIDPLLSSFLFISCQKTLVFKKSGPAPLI

One test concerns the target T1, NA transporter (Rattus norvegicus, UniProt Q9WTR4).
T1 construct: synaptosomes from rat brain regions were freshly isolated; from tissue; host or cells: P2 synaptosome fraction from hypothalamus of male rat brain
Put plainly: Noradrenalin uptake inhibition (NA-uptake) in synaptosomes. Conditions: rat hypothalamus synaptosomes. The format is biochemical. The text has this:
Tests on Noradrenalin Uptake Inhibition (NA-Uptake Inhibition)
In order to be able to carry out these in vitro studies, synaptosomes from rat brain regions were freshly isolated.
`CCOC(=O)N1CCC(NC(=O)C2=NOC3(CCN(S(=O)(=O)c4cccc(C(F)(F)F)c4)CC3)C2)CC1` [Example 122, 4-{[8-(3-trifluoromethyl-benzenesulphonyl)-1-oxa-2,8-diaza-spiro[4,5]dec-2-ene-3 carbonyl]-amino}-piperidine-1-carboxylic acid ethyl ester] showed an inhibition at 10 µM of 41%.

As for `CC(Oc1ccccc1)C(=O)N1CCC2(CC1)CC(C(=O)NCC1CC1)=NO2` (centres unmarked) [Example 123, 8-(2-phenoxy-propionyl)-1-oxa-2,8-diaza-spiro[4,5]dec-2-ene-3-carboxylic acid cyclopropylmethyl-amide], testing at 10 µM gave an inhibition of 42%.

Take `COc1cccc(CCNC(=O)C2=NOC3(CCN(S(=O)(=O)c4ccc(F)cc4)CC3)C2)c1` [Example 124, 8-(4-fluoro-benzenesulphonyl)-1-oxa-2,8-diaza-spiro[4,5]dec-2-ene-3-carboxylic acid [2-(3-methoxy-phenyl)-ethyl]-amide]: the inhibition at 10 µM came out at 49%.

Compound `CSc1ncccc1C(=O)N1CCC2(CC1)CC(C(=O)NCC(C)C)=NO2` [Example 125, 8-(2-methylsulphanyl-pyridine-3-carbonyl)-1-oxa-2,8-diaza-spiro[4,5]dec-2-ene-3-carboxylic acid isobutyl-amide] came in with an inhibition at 10 µM of 40%.

As to `Cc1oc(C(C)(C)C)cc1C(=O)N1CCC2(CC1)CC(C(=O)NC1CCCC1)=NO2` [Example 126, 8-(5-tert-butyl-2-methyl-furan-3-carbonyl)-1-oxa-2,8-diaza-spiro[4,5]dec-2-ene-3-carboxylic acid cyclopentylamide], the inhibition at 10 µM is 67%.

With `O=C(NCc1cccs1)C1=NOC2(CCN(S(=O)(=O)c3ccc(Cl)cc3)CC2)C1` [Example 127, 8-(4-chloro-benzenesulphonyl)-1-oxa-2,8-diaza-spiro[4,5]dec-2-ene-3-carboxylic acid (thiophen-2-ylmethyl)-amide], the inhibition at 10 µM was 51%.

As for `O=C(NCc1cccc2ccccc12)C1=NOC2(CCN(S(=O)(=O)c3ccc(Cl)s3)CC2)C1` [Example 128, 8-(5-chloro-thiophene-2-sulphonyl)-1-oxa-2,8-diaza-spiro[4,5]dec-2-ene-3-carboxylic acid naphthalen-l-ylmethyl-amide], the “NA-uptake, 10 μM, % inhibition” value came to 45%.

In turn, `O=C(NCCc1ccc(F)cc1)C1=NOC2(CCN(S(=O)(=O)c3ccc(OC(F)(F)F)cc3)CC2)C1` [Example 129, 8-(4-trifluoromethoxy-benzenesulphonyl)-1-oxa-2,8-diaza-spiro[4,5]dec-2-ene-3-carboxylic acid [2-(4-fluorophenyl)-ethyl]-amide] registered an inhibition at 10 µM of 43%.

Turning to `COc1ccc(C(=O)N2CCC3(CC2)CC(C(=O)NCc2ccccc2)=NO3)cc1` [Example 131, 8-(4-methoxy-benzoyl)-1-oxa-2,8-diaza-spiro[4,5]dec-2-ene-3-carboxylic acid benzylamide], the inhibition at 10 µM amounted to 57%.

As to `O=C(NCc1cccc(Cl)c1)C1=NOC2(CCN(S(=O)(=O)c3cccc(C(F)(F)F)c3)CC2)C1` [Example 132, 8-(3-trifluoromethyl-benzenesulphonyl)-1-oxa-2,8-diaza-spiro[4,5]dec-2-ene-3-carboxylic acid 3-chlorobenzylamide], at 10 µM the inhibition was 46%.

With `Cc1ccccc1N1CCN(C(=O)C2=NOC3(CCN(S(=O)(=O)Cc4ccccc4)CC3)C2)CC1` [Example 133, (8-phenylmethanesulphonyl-1-oxa-2,8-diaza-spiro[4,5]dec-2-en-3-yl)-(4-o-tolyl-piperazin-l-yl)-methanone], the “NA-uptake, 10 μM, % inhibition” value stood at 48%.

As to `O=C(C1=NOC2(CCN(S(=O)(=O)Cc3ccccc3)CC2)C1)N1CCN(c2ccccn2)CC1` [Example 134, (8-phenylmethanesulphonyl-1-oxa-2,8-diaza-spiro[4,5]dec-2-en-3-yl)-(4-pyridin-2-yl-piperazin-1-yl)-methanone], the inhibition at 10 µM amounted to 51%.

As to `O=C(NCc1cccs1)C1=NOC2(CCN(C(=O)c3ccc(SC(F)(F)F)cc3)CC2)C1` [Example 135, 8-(4-trifluoromethylsulphanyl-benzoyl)-1-oxa-2,8-diaza-spiro[4,5]dec-2-ene-3-carboxylic acid (thiophen-2-ylmethyl)-amide], the inhibition at 10 µM was determined as 56%.

With `O=C(NCc1ccccc1)C1=NOC2(CCN(S(=O)(=O)c3cccs3)CC2)C1` [Example 136, 8-(thiophene-2-sulphonyl)-1-oxa-2,8-diaza-spiro[4,5]dec-2-ene-3-carboxylic acid benzylamide], at 10 µM the inhibition was 53%.

In turn, `CC(C)CNC(=O)C1=NOC2(CCN(C(=O)c3ccc(F)cc3)CC2)C1` [Example 137, 8-(4-fluoro-benzoyl)-1-oxa-2,8-diaza-spiro[4,5]dec-2-ene-3-carboxylic acid isobutyl-amide] gave an inhibition at 10 µM of 49%.

In the case of `COC(=O)c1ccccc1S(=O)(=O)N1CCC2(CC1)CC(C(=O)NCC(C)C)=NO2` [Example 138, 2-(3-isobutylcarbamoyl-1-oxa-2,8-diaza-spiro[4,5]dec-2-ene-8-sulphonyl)-benzoic acid methyl ester], testing at 10 µM gave an inhibition of 49%.

Take `CN(C)S(=O)(=O)N1CCC2(CC1)CC(C(=O)NC(Cc1ccccc1)C(=O)OC(C)(C)C)=NO2` (centres unmarked) [Example 139, 2-[(8-dimethylsulphamoyl-1-oxa-2,8-diaza-spiro[4,5]dec-2-ene-3-carbonyl)-amino]-3-phenyl-propionic acid tert-butyl ester]: testing at 10 µM gave an inhibition of 51%.

Take `CC(NC(=O)C1=NOC2(CCN(S(=O)(=O)c3ccc(Cl)s3)CC2)C1)c1cccc2c1OCCO2` (centres unmarked) [Example 140, 8-(5-chloro-thiophene-2-sulphonyl)-1-oxa-2,8-diaza-spiro[4,5]dec-2-ene-3-carboxylic acid [1-(2,3-dihydro-benzo[1,4]dioxin-5-yl)-ethyl]-amide]: the inhibition at 10 µM was 83%.

For the compound `O=C(NCc1cccs1)C1=NOC2(CCN(C(=O)c3ccc(Br)cc3)CC2)C1` [Example 141], the “NA-uptake, 10 μM, % inhibition” value was determined as 61%.

Compound `O=C(NCCCn1ccnc1)C1=NOC2(CCN(S(=O)(=O)c3ccc(F)cc3)CC2)C1` [Example 142, 8-(4-fluoro-benzenesulphonyl)-1-oxa-2,8-diaza-spiro[4,5]dec-2-ene-3-carboxylic acid (3-imidazol-1-yl-propyl)-amide] displayed an inhibition at 10 µM of 49%.

As to `O=C(OCc1ccccc1)N1CCN(C(=O)C2=NOC3(CCN(S(=O)(=O)c4ccc(F)cc4)CC3)C2)CC1` [Example 143], the “NA-uptake, 10 μM, % inhibition” value amounted to 47%.

The compound `CC(C)CC(NC(=O)C1=NOC2(CCN(S(=O)(=O)c3cccs3)CC2)C1)C(=O)OC(C)(C)C` (centres unmarked) [Example 145, 4-methyl-2-{[8-(thiophene-2-sulphonyl)-1-oxa-2,8-diaza-spiro[4,5]dec-2-ene-3-carbonyl]-amino]-pentanoic acid tert-butyl ester] displayed an inhibition at 10 µM of 46%.

Still in this test, the particulars now being: rat hypothalamus synaptosomes, 10 µM.
In the case of `COc1ccc(S(=O)(=O)N2CCC3(CC2)CC(C(=O)NC2CCCC2OCc2ccccc2)=NO3)cc1` (centres unmarked) [Example 121, 8-(4-methoxy-benzenesulphonyl)-1-oxa-2,8-diaza-spiro[4,5]dec-2-ene-3-carboxylic acid (2-benzyloxy-cyclopentyl)-amide], the “NA-uptake, 10 μM, % inhibition” value is listed as 55%.
